Results reported in patent publication EP4763837A1, “PHOTOCHROMIC COMPOUND, CURABLE COMPOSITION, OPTICAL ARTICLE, LENS, AND EYEGLASSES” (TOKUYAMA CORPORATION, priority 2023, dated 2025).
Values joined by “and” are separate entries in the source; they are usually repeats but may differ in a detail not shown here. Equal values may be shown once.

Legend:
[1] = Photochromic property of photochromic laminate made by coating method; assay type: physicochemical; details: for Residual ratio / Color developing density at 23°C: laminate by coating method; for Residual ratio: A96/A0 x 100 after 96 hours accelerated degradation, xenon weather meter X25; for Color developing density at 23°C: absorbance difference after 240 seconds irradiation at the maximum absorption wavelength of the same line
How it was run: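 Compound at 0.25 mmol per 100 g methacrylate monomer mix, spin-coated 40 µm on a primed thiourethane lens, photocured 90 s under N2, then 110°C for 1 h. λmax and A23 measured after 240 s irradiation at 23°C; τ1/2 is time to half-fade after irradiation stops. Residual ratio A96/A0 after 96 h xenon weathering.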

[2] = Photochromic property of photochromic cured product made by kneading method; assay type: physicochemical; details: for Residual ratio: A96/A0 x 100 after 96 hours accelerated degradation, xenon weather meter X25; for Color developing density at 23°C: absorbance difference after 240 seconds irradiation at the maximum absorption wavelength of the same line
Protocol: The resulting photochromic laminates were evaluated by the below-mentioned methods. • (1) Photochromic property • [1] Maximum absorption wavelength (λmax): This is the maximum absorption wavelength after color development determined by a spectrophotometer manufactured by Otsuka Electronics Co., Ltd. (instantaneous multichannel photo detector MCPD3000) and was used as an index of a color tone upon color development. • [2] Color developing density at 23°C (A23): This is a difference between an absorbance {ε(240)} after irradiation with light at 23°C for 240 seconds and an absorbance ε(0) when not irradiated with light at the maximum absorption wavelength and was used as an index of a color developing density. The higher this value is, the better a photochromic property is. • [3] Color fading half-life at 23°C [τ1/2 (sec).)]: This is a period of time taken by an absorbance at the maximum absorption wavelength of a sample to decrease to 1/2 of {ε(240)-ε(0)} when irradiation is stopped after irradiation with light at 23°C for 240 seconds, and was used as an index of a color fading rate. The shorter this period of time is, the faster the color fading rate is. • [4] Residual ratio (A96/A0 x 100): The resulting photochromic plastic lens was subjected to accelerated degradation for 96 hours using a xenon weather meter X25 manufactured by Suga Test Instruments Co., Ltd. Color developing densities were then evaluated before and after a test, and a color developing density before the test (A0) and a color developing density after the test (A96) were measured. A ratio (A96/A0) was determined as a residual ratio and was used as an index of color development durability. The higher the residual ratio is, the more durable the color development is.
First, the photochromic compound obtained in Example 1, an additive, and a polymerizable compound were mixed to obtain a curable composition. The polymerizable compound was a combination of the following polymerizable monomers: • · 1,3-Bis(isocyanatomethyl)cyclohexane: 36.7 parts by mass • · Pentaerythritol tetrakis(3-mercaptopropionate): 39.4 parts by mass • · Polyoxyethylene polyoxypropylene lauryl ether (WONDERSURF 140 manufactured by AOKI OIL INDUSTRIAL Co., Ltd.): 17.4 parts by mass • · 1-Decanethiol: 2.8 parts by mass • · RX-1 prepared by the method described in Patent Document 14: 3.8 parts by mass
Note that, in the curable composition, the photochromic compound was added in an amount of 0.106 mmol taking a total amount of the polymerizable monomers as 100 g.
The following additives were used: • · Dimethyltin dichloride: 0.05 parts by mass • · Irganox 245: 0.1 parts by mass • · 2-Ethylhexyl […]: 0.6 parts by mass
After the thus-prepared curable composition was thoroughly defoamed, it was poured into a glass mold with a gap of 1 mm and polymerized by casting polymerization. […] After the polymerization, the resulting cured product was removed from the glass mold to obtain a photochromic cured product with a thickness of 1 mm. The resulting photochromic cured product was evaluated in the same manner as for Example 23.
Photochromic cured products were produced using the photochromic compounds shown in Table 4 in the same manner as in Example 50.

Structure (SMILES) | Color fading half-life at 23°C [1] [min] | Residual ratio [1] | Color developing density at 23°C [1] | Residual ratio [2] | Color developing density at 23°C [2]
CCCCC1(CCC)c2ccccc2-c2c1c1c(c3cc(OC)c(N4CCOCC4)cc23)OC(c2ccc(OC)cc2)(c2ccc(OC)cc2)C=C1 (centres unmarked) [Formula (6-2)] | 2 | 55% and 58% | – | – | –
CCC1(C)c2ccccc2-c2c1c1c(c3cc(OC)c(N(C)c4ccccc4)cc23)OC(c2ccc(OC)cc2)(c2ccc(OC)cc2)C=C1 (centres unmarked) [Formula (9-1)] | 1.32 | 71% | 1.16 - | 79% | 1.20 -
CCCC1(CC)c2ccccc2-c2c1c1c(c3cc(OC)c(N4CCOCC4)cc23)OC(c2ccc(OC)cc2)(c2ccc(OC)cc2)C=C1 (centres unmarked) [Formula (14-1)] | 1.83 | 55% and 57% | – | 63% and 64% | –
CCCCCCC1(CC)c2ccccc2-c2c1c1c(c3cc(OC)c(N4CCOCC4)cc23)OC(c2ccc(OC)cc2)(c2ccc(OC)cc2)C=C1 (centres unmarked) [Formula (18-1)] | – | 53% and 55% | – | 60% and 61% | –

Further lines, results first:

Color fading half-life at 23°C [1] [min] | Residual ratio [1] | Color developing density at 23°C [1] | Residual ratio [2] | Color developing density at 23°C [2] | Structure (SMILES)
– | 47% and 51% | – | 52% and 55% | – | CCCCCCCCCCCC1(C)c2ccccc2-c2c1c1c(c3cc(OC)c(N4CCOCC4)cc23)OC(c2ccc(OC)cc2)(c2ccc(OC)cc2)C=C1 (centres unmarked) [Formula (19-1)]
– | 47% and 50% | 1.65 - and 0.83 - | 54% and 56% | 1.68 - and 0.85 - | COc1ccc(C2(c3ccc(OC)cc3)C=Cc3c4c(c5cc(N6CCOCC6)c(OC)cc5c3O2)-c2ccccc2C4(C)C)cc1 [Formula (A), reference compound]
0.967 | 37% and 41% | 1.29 - and 0.70 - | 40% and 42% | 1.32 - and 0.69 - | CCC1(OC)c2ccccc2-c2c1c1c(c3cc(OC)c(N4CCOCC4)cc23)OC(c2ccc(OC)cc2)(c2ccc(OC)cc2)C=C1 (centres unmarked) [Formula (B), reference compound]
